Assays:
conscious rabbit = experiment: EEG (electroencephalogram) of the conscious rabbit; format: in vivo; settings: 3 mg/kg i.v.
muscarine receptors = experiment: Receptor bonding studies (radioligand L(+)cis-[2-methyl-^3 H]-N,N,N-trimethyl-1,3-dioxolane-4-methanammonium iodide); format: binding; settings: cerebral cortex (rat); radioligand L(+)cis-[2-methyl-^3 H]-N,N,N-trimethyl-1,3-dioxolane-4-methanammonium iodide NET-647
Experimental: The compounds of the general formula I have useful pharmacological properties.
The receptor bonding studies were performed in accordance with the following literature reference [A. Closse, H. bittiger, D. Langenegger and A. Wahner; Naunyn-Schmiedeberg's Arch. Pharmacol. 335,372-377 (1987)].
Receptor bonding studies
L(+)cis-[2-methyl-^3 H]-N,N,N-trimethyl-1,3-
dioxolane-4-methanammonium iodide NET-647,
NEN (New England Nuclear DU PONT).
Organ: Cerebral cortex (rat)

| SMILES | arousal reaction in the EEG (conscious rabbit) | Ki (muscarine receptors) |
| --- | --- | --- |
| C#CCOC1CN2CCC1CC2 (stereo not drawn) [Example 1, 3-(2-Propynyloxy)-1-azabicyclo[2,2,2]octane] | exhibits an arousal reaction typical of cholinomimetics | 159 nM |
| CCCOC1CN2CCC1CC2 (stereo not drawn) [nC3 H7] | – | 220 nM |
